What was measured:
[1] = test system: hepatocytes in microfluidic devices seeded with human liver cells; experiment: Hepatocyte morphology (bright-field) in human chips; assay type: cell-based; conditions: quadruple-cell human chips, daily administration 7 days
[2] = test system: microfluidic devices seeded with human liver cells; experiment: Cytokine release (IL-6, MCP-1, IP-10) from the vascular channel of human chips; assay type: cell-based; conditions: for release of cytokines/chemokines including IP-10: treated chips; for IL-6 release / MCP-1 release: 14 days
Description: Cytokines: Release of IL-6, MCP-1, and IP-10 from the vascular channel was quantified using U-PLEX biomarker human assays (Meso Scale Diagnostics, Rockville, Md., USA) and the assays were performed according to the protocol provided by the vendor.

[3] = test system: microfluidic devices seeded with human liver cells; experiment: Lipid accumulation (Nile red / AdipoRed) in human chips; assay type: cell-based
Excerpt: (§1) Microfluidic devices seeded with liver cells were stained in the upper channel with 5(6)-Carboxy-2′,7′-dichlorofluorescein diacetate (CDFDA) (ThermoFisher) to visualize bile canaliculi and MRP2 activity, cholyl-lysyl-fluorescein (CLF) (Corning) to visualize bile canaliculi and BSEP activity, Nile red (ThermoFisher) or AdipoRed (Lonza) to visualize lipid droplet accumulation, Tetramethylrhodamine, methyl ester (TMRM) (ThermoFisher) to visualize active mitochondria, and CellROX® (ThermoFisher) to visualize cellular oxidative stress. Each staining solution was prepared in blank medium or compound dosing medium and added to the upper channel, incubated for 15 minutes at 37° C., and washed three times with medium. The stained microfluidic devices were imaged using a specific filter, and were de-blurred with Olympus cellSens software. Using ImageJ-Fiji, the fluorescent channel images were histogram adjusted to remove background, followed by fluorescence quantification using the Integrated Density calculation function.
(§2) The stained microfluidic devices were imaged using the TRITC filter, and were de-blurred with Olympus cellSens software. Using ImageJ-Fiji, the fluorescent channel images were histogram adjusted to remove background, followed by fluorescence quantification using the Integrated Density calculation function. N=5 FOVs per microfluidic device were analyzed for conditions: vehicle (0.1% DMSO), FIAU dosing groups, and MTX dosing groups.

[4] = cited from earlier work
[5] = test system: microfluidic devices seeded with human liver cells; experiment: Albumin secretion, microfluidic devices seeded with human liver cells; assay type: cell-based
Excerpt: Prior to cell seeding, microfluidic devices, in this case S-1 Chips (Emulate, Inc. Boston, Mass., USA), were functionalized using Emulate's proprietary protocols and reagents (ERT™), including those described herein. After surface functionalization, both channels of the microfluidic device were coated with species-specific extracellular matrices (ECM). For the human bound microfluidic device, a mixture of collagen type I (Corning, Corning, N.Y., USA) and fibronectin, e.g. bovine, (Gibco) was used; for the rat bound microfluidic devices a mixture of collagen type IV, e.g. human placenta, (Sigma-Aldrich, St. Louis, Mo., USA) and fibronectin (Gibco) was used; for the dog bound microfluidic devices a mixture of collagen I (Corning), collagen type IV (Sigma-Aldrich), and fibronectin (Gibco) was used. […] For the dual-cell culture model (hepatocytes and endothelial cells), the LSECs were seeded at a concentration of 2-4 million cells/mL in the lower vascular channel. […] After cell seeding, the upper channel of the microfluidic device was maintained in William's E Medium (WEM) containing Glutamax (Gibco), ITS+(Corning), dexamethasone (Sigma-Aldrich), ascorbic acid (Sigma-Aldrich), fetal bovine serum (FBS) (Sigma-Aldrich), and Penicillin/Streptomycin (Sigma-Aldrich). The vascular channel of the microfluidic device was maintained with species-specific endothelial media (Emulate, Inc.). Two days after seeding, the microfluidic devices were connected to the Human Emulation System™ (Emulate, Inc.), as described in part herein, and both of the microfluidic device channels were perfused at 30 μL/hr to provide a continuous supply of fresh media for the duration of the experiments. Albumin secretion from the upper channel was quantified using ELISA kits for human, rat, and dog models effluent samples (human and rat: Abcam; dog: Immunology Consultants Laboratory, Inc., Portland, Oreg., USA) and the assays were performed according to the protocol provided by each vendor.

stellate cells = experiment: Stellate cell activation (alpha-SMA) in human chips; assay type: cell-based
Description: Microfluidic devices seeded with liver cells and static sandwich plate cultures were fixed with 4% paraformaldehyde for 15 minutes at room temperature, washed with PBS, and permeabilized (saponin 1% with 10% serum in PBS). Blocking and incubation with the primary antibodies (overnight in PBS containing 1% BSA or PBS containing 10% serum and 1% BSA) was followed by a two-hour incubation with secondary antibodies (Cell Signaling, Danvers, Mass., USA) in the same blocking buffer. Immunostaining was performed with specific primary antibodies (anti-MRP2, anti-stabilin-1, anti-BSEP, anti-α-SMA, anti-CD68; Abcam, Cambridge, Mass., USA) and images were acquired with either an Olympus fluorescence microscope (IX83) or Zeiss confocal microscope (AxiovertZ1 LSM880).
The number of CD68- or α-SMA-positive cells in the vascular channel in each group was counted in each field of view ([…]) and quantified.
The fluorescent channel (588) was first background subtracted and processed using the median filter of Image J. After processing, the signal was thresholded using adaptive thresholding function of Image J (Otsu method) to extract fluorescent regions and to measure the relative intensity of the fluorescent signal. N=4 to 6 FOVs per microfluidic device from each microfluidic device were analyzed. […]

[6] = test system: microfluidic devices seeded with human liver cells; experiment: Mitochondrial membrane potential (TMRM) in human chips; assay type: cell-based; conditions: TAK-875 3, 10, 30 μM, 8 or 15 days
Excerpt: as §1

[7] = test system: microfluidic devices seeded with human liver cells; experiment: ROS levels (CellROX) in human chips; assay type: cell-based; conditions: TAK-875, up to 15 days
MRP2 = molecular target: T1, MRP2 (Homo sapiens, UniProt Q92887); experiment: Biliary efflux of MRP2 substrate CDFDA in human chips; assay type: cell-based; conditions: TAK-875 3, 10, 30 μM, up to 15 days
T1 construct: Primary rat, dog or human hepatocytes were cultured in the upper parenchymal channel; endogenous in cells; host or cells: primary human hepatocytes in a microfluidic Liver-Chip

[8] = test system: microfluidic devices seeded with human liver cells; experiment: DILI biomarker release (alpha-GST, miR-122, keratin 18) from human chips; assay type: cell-based
Excerpt: Exemplary Biomarker, e.g. DILI: Keratin 18 levels were quantified in human model effluent samples from both the hepatocyte and vascular channels using the M65 EpiDeath CK18 ELISA Kit (DiaPharma, Detroit, Mich., USA). The assay was run following the vendor protocol using a standard curve ranging from 0-5,000 U/L. Additionally, a standard curve ranging from 0-500 U/L was generated independently for quality control.
Exemplary Biomarker, e.g. DILI: Alpha Glutathione S-Transferase (α-GST) levels were quantified in human model effluent samples from the upper channel using an ELISA kit (DiaPharma). The assay was run following the vendor protocol using a standard curve ranging from 0-64 μg/L. Additionally, a standard curve ranging from 0-50 μg/L was generated independently for quality control.
Exemplary Biomarker, e.g. DILI: Mir-122: Isolation of micro-RNAs was performed on upper and lower chamber eluates using Qiagen's (Hilden, Germany) miRNA isolation kit for serum and plasma. A total volume of 50 μL was used for isolation. Isolation was performed according to manufacturer's protocol using a 56.5 pM oligonucleotide spike-in control. Samples were eluted with 14 μL RNase-free water. Reverse transcription was performed using Thermo Fisher Scientific's TaqMan™ MicroRNA Reverse Transcription Kit according to the manufacturer's protocol. A total reaction volume of 15 μL was used. Real-time PCR was performed using Thermo Fisher Scientific's TaqMan™ Micro-RNA Assays according to manufacturer's protocol. A total reaction volume of 10 μl was used. Normalized rrCt was used for fold-change analysis.

[9] = test system: microfluidic devices seeded with rat liver cells; experiment: Albumin secretion / hepatocyte function, microfluidic devices seeded with rat liver cells; assay type: cell-based; conditions: rat quadruple-cell chips, 1, 10, 30 μM
Excerpt: Prior to cell seeding, microfluidic devices, in this case S-1 Chips (Emulate, Inc. Boston, Mass., USA), were functionalized using Emulate's proprietary protocols and reagents (ERT™), including those described herein. After surface functionalization, both channels of the microfluidic device were coated with species-specific extracellular matrices (ECM). For the human bound microfluidic device, a mixture of collagen type I (Corning, Corning, N.Y., USA) and fibronectin, e.g. bovine, (Gibco) was used; for the rat bound microfluidic devices a mixture of collagen type IV, e.g. human placenta, (Sigma-Aldrich, St. Louis, Mo., USA) and fibronectin (Gibco) was used; for the dog bound microfluidic devices a mixture of collagen I (Corning), collagen type IV (Sigma-Aldrich), and fibronectin (Gibco) was used. […] For the dual-cell culture model (hepatocytes and endothelial cells), the LSECs were seeded at a concentration of 2-4 million cells/mL in the lower vascular channel. […] Albumin secretion from the upper channel was quantified using ELISA kits for human, rat, and dog models effluent samples (human and rat: Abcam; dog: Immunology Consultants Laboratory, Inc., Portland, Oreg., USA) and the assays were performed according to the protocol provided by each vendor.

[10] = test system: microfluidic devices seeded with rat liver cells; experiment: Lipid accumulation (Nile red) in rat chips; assay type: cell-based; conditions: rat chips, 1, 10, 30 μM, 10 days
Excerpt: as §1, with “The stained microfluidic devices were imaged using a specific filter, and were de-blurred with Olympus cellSens software.” left out
as §2

T1 sequence (Q92887 whole entry): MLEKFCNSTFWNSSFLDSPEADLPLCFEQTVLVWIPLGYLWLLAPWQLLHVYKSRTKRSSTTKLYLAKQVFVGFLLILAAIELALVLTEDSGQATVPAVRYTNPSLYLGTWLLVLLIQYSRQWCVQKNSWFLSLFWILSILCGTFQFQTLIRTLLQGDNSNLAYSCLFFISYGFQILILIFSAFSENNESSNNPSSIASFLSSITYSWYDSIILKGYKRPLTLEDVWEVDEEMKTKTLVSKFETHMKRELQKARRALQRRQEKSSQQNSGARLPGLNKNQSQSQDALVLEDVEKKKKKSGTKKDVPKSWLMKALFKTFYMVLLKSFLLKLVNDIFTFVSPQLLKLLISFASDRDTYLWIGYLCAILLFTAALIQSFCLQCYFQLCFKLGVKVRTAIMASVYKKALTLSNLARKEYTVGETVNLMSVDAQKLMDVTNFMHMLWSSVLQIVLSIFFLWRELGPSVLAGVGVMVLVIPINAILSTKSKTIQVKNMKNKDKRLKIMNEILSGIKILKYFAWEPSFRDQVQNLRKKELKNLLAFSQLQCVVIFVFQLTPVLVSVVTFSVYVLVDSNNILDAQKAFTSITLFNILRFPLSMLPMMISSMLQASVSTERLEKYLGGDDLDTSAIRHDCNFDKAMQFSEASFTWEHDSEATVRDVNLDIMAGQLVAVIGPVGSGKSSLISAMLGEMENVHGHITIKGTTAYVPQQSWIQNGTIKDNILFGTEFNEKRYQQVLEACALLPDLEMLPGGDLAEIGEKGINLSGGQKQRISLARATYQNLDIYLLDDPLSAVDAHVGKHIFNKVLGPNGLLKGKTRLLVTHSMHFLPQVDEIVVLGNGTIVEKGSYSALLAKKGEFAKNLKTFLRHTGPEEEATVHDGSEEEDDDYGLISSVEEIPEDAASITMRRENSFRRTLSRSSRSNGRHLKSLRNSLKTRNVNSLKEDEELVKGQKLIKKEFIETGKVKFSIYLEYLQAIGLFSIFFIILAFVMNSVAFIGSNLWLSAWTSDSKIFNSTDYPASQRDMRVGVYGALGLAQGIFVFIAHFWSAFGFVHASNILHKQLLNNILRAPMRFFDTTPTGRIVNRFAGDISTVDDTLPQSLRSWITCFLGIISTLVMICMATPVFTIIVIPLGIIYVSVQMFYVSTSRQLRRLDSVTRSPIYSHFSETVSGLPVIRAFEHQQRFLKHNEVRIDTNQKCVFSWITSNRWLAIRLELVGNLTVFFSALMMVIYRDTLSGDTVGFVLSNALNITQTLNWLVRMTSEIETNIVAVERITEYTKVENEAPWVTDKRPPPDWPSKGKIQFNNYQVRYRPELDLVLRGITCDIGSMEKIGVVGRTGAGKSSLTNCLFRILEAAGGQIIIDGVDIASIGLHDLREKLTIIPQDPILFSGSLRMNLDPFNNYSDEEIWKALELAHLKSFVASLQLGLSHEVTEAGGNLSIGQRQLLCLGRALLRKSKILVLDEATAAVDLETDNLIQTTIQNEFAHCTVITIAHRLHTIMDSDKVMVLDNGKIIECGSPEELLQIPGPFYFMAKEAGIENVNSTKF

**Q.** Which hepatocyte morphology [1] does the source give for `CN(Cc1cnc2nc(N)nc(N)c2n1)c1ccc(C(=O)N[C@@H](CCC(=O)O)C(=O)O)cc1` [MTX, Methotrexate] here?
**A.** no abnormalities

**Q.** And the IP-10 ([2]; MTX 1, 10, 30 μM, vascular channel, 1 day (FIG. 8C))?
**A.** increases

**Q.** And the “release of cytokines/chemokines including IP-10” value [2]?
**A.** observed

**Q.** What about the “lipid accumulation (Nile red)” value ([3]; daily 1, 10, 30 μM for 7 days) of the same molecule?
**A.** microscopic evidence of lipid accumulation

**Q.** What about the “maximal plasma concentration at which liver injury occurs in humans” value ([4]; some patient populations) of the same molecule?
**A.** ~1 µM

**Q.** And the “albumin synthesis / secretion” value ([5]; quadruple-cell human chips, 7 days)?
**A.** no abnormalities

**Q.** And the “stellate cell activation, expression of α-SMA” value (stellate cells; daily 1, 10, 30 μM for 7 days)?
**A.** increased expression

**Q.** Which results are given for `Cc1cc(OCCCS(C)(=O)=O)cc(C)c1-c1cccc(COc2ccc3c(c2)OC[C@H]3CC(=O)O)c1` [TAK-875]?
**A.** IL-6 release ([2]; 10 μM): significant release; MCP-1 release ([2]; 10 μM): significant release; IL-6 release ([2]; 30 μM (highest dose)): not observed; MCP-1 release ([2]; 30 μM (highest dose)): not observed; lipid droplet accumulation (AdipoRed) ([3]; end of the 2-week treatment): detected; incidence of treatment-related elevations in transaminases (>3-fold rise in upper limit of normal) ([4]; Phase III trials): 2.7%; mitochondrial membrane potential, TMRM distribution [6]: dose-related and time-dependent redistribution; formation of ROS [7]: increase; albumin production ([5]; 30 μM, 14 days, human chips): decreased; biliary efflux of the MRP2 substrate CDFDA (MRP2): dose-dependent decrease; % aSMA positive area from the vascular channel (stellate cells; 10 or 30 uM for 15 days, human Liver-Chips): Not significant; release of K18 ([8]; 30 μM, 14 days): increased release; markers of hepatocyte function or necrosis (albumin and K18) ([8]; accompanying mitochondrial perturbations, human chips): minimal changes

**Q.** What does the source list for `O=c1[nH]c(=O)n([C@@H]2O[C@H](CO)[C@@H](O)[C@@H]2F)cc1I` [FIAU, fialuridine]?
**A.** hepatocyte function [9]: no effects; release of cytokines/chemokines including IP-10 [2]: observed; lipid accumulation (Nile red) ([3]; daily 1, 10, 30 μM for 10 days, human chips): dose-dependent increase; patients with liver failure and death ([4]; Phase II clinical trials): 5/15; lipid accumulation [10]: no effects; concentrations with dose-dependent decline in albumin secretion ([5]; quadruple-cell human chips, daily FIAU 1, 10, 30 μM): ≥ 1000 nM; keratin 18 (K-18) (liver injury marker) ([8]; FIAU 1, 10, 30 μM, 10 days): release; miR122 (liver injury marker) ([8]; FIAU 1, 10, 30 μM, 10 days): release; α-GST (liver injury marker) ([8]; FIAU 1, 10, 30 μM, 10 days): release

Reference: patent US20210340572A1, “HIGH-CONTENT IMAGING OF MICROFLUIDIC DEVICES” (EMULATE, Inc., priority 2019, published 2021)
